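Tested at 5 concentrations; 48 h exposure; 96-well plates; endpoints linearly interpolated, else capped at highest concentration. At the GI50, growth is halved.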 Calls of active or inactive are those of the source. No stated cut-off is given here; in the data, active = GI50 up to about 1.1 µM and inactive = higher.
Tests used:
Test in all cases: NCI tumour cell line growth inhibition, 48 h
[1] = test system: SN12C
[2] = test system: M14
[3] = test system: U-251
[4] = test system: EKVX
[5] = test system: KM12
[6] = test system: DU-145
[7] = test system: T47D
[8] = test system: Malme-3M
[9] = test system: UACC-257
[10] = test system: HT-29
[11] = test system: MDA-N
[12] = test system: HL-60
[13] = test system: HCT-116
[14] = test system: ACHN
[15] = test system: A549
[16] = test system: NCI-H226
[17] = test system: SF-539
[18] = test system: SW-620
[19] = test system: IGROV-1
[20] = test system: CCRF-CEM
[21] = test system: RPMI-8226
[22] = test system: CAKI-1
[23] = test system: MCF7
[24] = test system: Hs-578T
[25] = test system: SR
[26] = test system: NCI-H23
[27] = test system: SK-MEL-2
[28] = test system: MOLT-4
[29] = test system: HOP-62
[30] = test system: UACC-62
[31] = test system: LOX IMVI
[32] = test system: 786-0
[33] = test system: PC-3
[34] = test system: K562
[35] = test system: SNB-19
[36] = test system: UO-31
[37] = test system: NCI/ADR-RES
[38] = test system: MDA-MB-231
[39] = test system: HOP-92
[40] = test system: BT-549
[41] = test system: HCT-15
[42] = test system: COLO 205
[43] = test system: MDA-MB-435
[44] = test system: SK-MEL-28
[45] = test system: SK-OV-3
[46] = test system: OVCAR-5
[47] = test system: OVCAR-4
[48] = test system: HCC 2998
[49] = test system: NCI-H522
[50] = test system: OVCAR-3
[51] = test system: A498
[52] = test system: SK-MEL-5
[53] = test system: TK-10
[54] = test system: OVCAR-8
[55] = test system: SF-295
[56] = test system: NCI-H460
[57] = test system: SF-268
[58] = test system: SNB-75
[59] = test system: RXF 393

`[N-]=[N+]=NCC1OCC(O)C(OCc2ccccc2)C1OCc1ccccc1` (centres undefined) was tested, and the GI50 [1] was > 100 µM (inactive), the GI50 [2] was > 100 µM (inactive) and the GI50 [3] was > 100 µM (inactive). For the same compound, the GI50 [4] was 48.4 µM (inactive), the GI50 [5] was 41 µM (inactive) and the GI50 [6] was 86.7 µM (inactive). The GI50 [7] was 25.1 µM (inactive), the GI50 [8] was > 10 µM (inactive) and the GI50 [9] was 66.8 µM (inactive). The GI50 [10] was 36.3 µM (inactive), the GI50 [11] was > 100 µM (inactive) and the GI50 [12] was 70.6 µM (inactive). The GI50 [13] was 95.9 µM (inactive), the GI50 [14] was > 100 µM (inactive) and the GI50 [15] was 70 µM (inactive). For the same compound, the GI50 [16] was 55 µM (inactive), the GI50 [17] was > 100 µM (inactive) and the GI50 [18] was > 100 µM (inactive). The GI50 [19] was 79.3 µM (inactive), the GI50 [20] was 83.4 µM (inactive) and the GI50 [21] was > 100 µM (inactive). For the same compound, the GI50 [22] was > 100 µM (inactive), the GI50 [23] was > 100 µM (inactive) and the GI50 [24] was > 100 µM (inactive). The GI50 [25] was 57.1 µM (inactive), the GI50 [26] was > 100 µM (inactive) and the GI50 [27] was 39.4 µM (inactive). The GI50 [28] was 37.1 µM (inactive), the GI50 [29] was > 100 µM (inactive) and the GI50 [30] was 31.9 µM (inactive). The GI50 [31] was > 100 µM (inactive), the GI50 [32] was 81.5 µM (inactive) and the GI50 [33] was 73.1 µM (inactive). For the same compound, the GI50 [34] was 51.4 µM (inactive), the GI50 [35] was > 100 µM (inactive) and the GI50 [36] was 65.2 µM (inactive). The GI50 [37] was > 100 µM (inactive), the GI50 [38] was > 100 µM (inactive) and the GI50 [39] was 65.3 µM (inactive). The GI50 [40] was 28.9 µM (inactive), the GI50 [41] was 61 µM and the GI50 [42] was > 100 µM (inactive). The GI50 [43] was > 100 µM (inactive), the GI50 [44] was > 100 µM (inactive) and the GI50 [45] was > 100 µM (inactive). For the same compound, the GI50 [46] was > 100 µM (inactive), the GI50 [47] was > 100 µM (inactive) and the GI50 [48] was 72.8 µM (inactive). The GI50 [49] was 70 µM (inactive), the GI50 [50] was > 100 µM (inactive) and the GI50 [51] was > 100 µM (inactive). The GI50 [52] was 95.9 µM (inactive), the GI50 [53] was > 100 µM (inactive) and the GI50 [54] was > 100 µM (inactive). For the same compound, the GI50 [55] was 79.3 µM (inactive), the GI50 [56] was 48.2 µM (inactive) and the GI50 [57] was > 100 µM (inactive). For the same compound, the GI50 [58] was 20.5 µM (inactive).

For `COC(=O)c1c(O)ccc2c1c1c(n2Cc2ccc(Cl)cc2Cl)C(=O)c2ccccc2C1`, the GI50 [1] was 23.1 µM (inactive), the GI50 [2] was 89.1 µM (inactive) and the GI50 [3] was 38 µM (inactive). For the same compound, the GI50 [5] was 22 µM (inactive), the GI50 [6] was > 100 µM (inactive) and the GI50 [7] was 40.6 µM (inactive). The GI50 [8] was 97.7 µM (inactive), the GI50 [9] was 42.2 µM (inactive) and the GI50 [10] was 79.6 µM (inactive). The GI50 [11] was 52.8 µM (inactive), the GI50 [12] was > 100 µM (inactive) and the GI50 [13] was 87.9 µM (inactive). The GI50 [15] was 41.3 µM (inactive), the GI50 [16] was 27.6 µM (inactive) and the GI50 [17] was 54.5 µM (inactive). The GI50 [18] was 57 µM (inactive), the GI50 [19] was 50.8 µM (inactive) and the GI50 [20] was 23.2 µM (inactive). For the same compound, the GI50 [21] was 19.7 µM (inactive), the GI50 [23] was 26.8 µM (inactive) and the GI50 [24] was 93.8 µM (inactive). For the same compound, the GI50 [25] was 36.3 µM (inactive), the GI50 [26] was 60 µM (inactive) and the GI50 [27] was 60.4 µM (inactive). The GI50 [28] was 39.1 µM (inactive), the GI50 [29] was > 100 µM (inactive) and the GI50 [30] was > 100 µM (inactive). For the same compound, the GI50 [31] was 27 µM (inactive), the GI50 [32] was 74.5 µM (inactive) and the GI50 [33] was 24.1 µM (inactive). The GI50 [34] was 52.1 µM (inactive), the GI50 [35] was 61.7 µM (inactive) and the GI50 [36] was 97.9 µM (inactive). For the same compound, the GI50 [37] was 34 µM (inactive), the GI50 [38] was 69.7 µM (inactive) and the GI50 [40] was 75.9 µM (inactive). The GI50 [41] was 42.7 µM, the GI50 [42] was 45.7 µM (inactive) and the GI50 [43] was 45.1 µM (inactive). For the same compound, the GI50 [44] was 45.2 µM (inactive), the GI50 [45] was 47.9 µM (inactive) and the GI50 [47] was 27.1 µM (inactive). For the same compound, the GI50 [59] was 31 µM (inactive), the GI50 [50] was 49.2 µM (inactive) and the GI50 [51] was > 100 µM (inactive). The GI50 [52] was 89.5 µM (inactive), the GI50 [53] was > 100 µM (inactive) and the GI50 [54] was 37.8 µM (inactive). The GI50 [56] was 33.3 µM (inactive), the GI50 [57] was 32.5 µM (inactive) and the GI50 [58] was 20 µM (inactive).

Reference: ChEMBL document CHEMBL1201862, “PubChem BioAssay data set” (2004)
